Holding throughout (format): cell-based
The test system of test [1] is Staphylococcus aureus ATCC 43300. Nature of the test: Broth microdilution MIC/MBC. Particulars: Staphylococcus aureus ATCC 43300 (MRSA). Summed up:
(§1)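 Broth microdilution per EUCAST and CLSI guidelines: 0.5 McFarland inocula in 0.85% NaCl added to two-fold compound dilutions (1000–0.488 µg/ml final). Media were Mueller-Hinton broth for bacteria and RPMI 1640 with MOPS for yeasts.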
(In broth dilution the organism is exposed to a series of concentrations in liquid medium.)

Test [2] has as its system Pseudomonas aeruginosa ATCC 9027. Nature of the test: Broth microdilution MIC/MBC. The following applies: ATCC9027. Summed up: as §1
Test [3] concerns Proteus mirabilis ATCC 12453. Briefly: Broth microdilution MIC/MBC. Particulars: ATCC12453. In a few lines:
as §1

For test [4], the system named is Staphylococcus aureus ATCC 29213. Nature of the test: Broth microdilution MIC/MBC. Particulars: ATCC29213. In a few lines: as §1
In test [5] the test system is Micrococcus luteus ATCC 10240. Briefly: Broth microdilution MIC/MBC. The following applies: ATCC10240, read-out: MIC. In a few lines: as §1
Test [6] has as its system Salmonella typhimurium ATCC 14028. Briefly: Broth microdilution MIC/MBC. Particulars: Salmonella enterica. In a few lines: as §1
Test [7] deals with Staphylococcus epidermidis ATCC 12228. Nature of the test: Broth microdilution MIC/MBC. The following applies: for MIC: ATCC12228, read-out: MIC. Summed up: as §1
The test system of test [8] is Bacillus subtilis ATCC 6633. Briefly: Broth microdilution MIC/MBC. The following applies: for MIC: ATCC6633, read-out: MIC. In a few lines:
as §1

Test [9] concerns Candida albicans ATCC 2091. Briefly: Broth microdilution MIC/MFC. Particulars: for MIC: ATCC2091, read-out: MIC. Summed up: as §1
For test [10], the system named is Candida glabrata ATCC 90030. Nature of the test: Broth microdilution MIC/MFC. The following applies: Nakaseomyces glabratus, ATCC90030, read-out: MIC. Summed up: as §1
Test [11] relates to Candida albicans ATCC 10231. Nature of the test: Broth microdilution MIC/MFC. The following applies: for MFC: ATCC10231, read-out: MFC; for MIC: ATCC10231, read-out: MIC. In a few lines: as §1
Test [12] deals with Candida parapsilosis ATCC 22019. Nature of the test: Broth microdilution MIC/MFC. The following applies: for MFC / MIC: Lodderomyces parapsilosis; for MFC: ATCC22019, read-out: MFC; for MIC: ATCC22019, read-out: MIC. Summed up:
as §1

Test [13] concerns Candida krusei ATCC 14243. Nature of the test: Broth microdilution MIC/MFC. Particulars: for MIC: ATCC14243, read-out: MIC. Summed up: as §1

Molecules are shown by their SMILES. Values after ≈ are worked out from the molar mass of the structure shown.

What is called MIC is the least concentration at which growth counts as inhibited. Usually MBC stands for the lowest tested concentration that kills the bacteria rather than only halting them. Read a high MBC as less potent killing. As a reminder, the MFC is the lowest tested concentration that kills the fungus rather than only halting it. For `O=C(N/N=C/c1cccc([N+](=O)[O-])c1)c1ccc(O)cc1O` [Compound 20, 2,4-dihydroxy-N-[(3-nitrophenyl)methylidene]benzohydrazide], the MIC in [1], in test [2], in test [3], in [4], in [5] and in test [6] was greater than 1000 µg/mL in each case. Further, the MIC in test [7] was greater than 1000 µg/mL; in test [8], 250 µg/mL (≈ 0.83 mM); in [9], greater than 1000 µg/mL; in test [10], greater than 1000 µg/mL; in test [11] it was 1000 µg/mL (≈ 3.32 mM); in test [12], 1000 µg/mL (≈ 3.32 mM). Besides, in test [13] (Pichia kudriavzevii), the MIC is greater than 1000 µg/mL. This molecule gave an MBC/MIC in [8] greater than 4. Also, in test [8] (ATCC6633), the minimum bactericidal concentration (MBC) was greater than 1000 µg/mL. The MFC/MIC in test [11] and in test [12] was greater than 1 throughout. For the same molecule, the MFC in [11] and in [12] was greater than 1000 µg/mL in each case.
With `O=C(N/N=C/c1ccccc1Cl)c1ccc(O)cc1O` [Compound 22, N-[(2-chlorophenyl)methylidene]-2,4-dihydroxybenzohydrazide], the MIC in test [1], in [2], in test [3], in [4], in test [5] and in test [6] was greater than 1000 µg/mL throughout. Moreover, the MIC is 1000 µg/mL (≈ 3.44 mM) in [7]; greater than 1000 µg/mL in test [8]; 1000 µg/mL (≈ 3.44 mM) in test [9]; greater than 1000 µg/mL in [10]; 1000 µg/mL (≈ 3.44 mM) in [11]; 1000 µg/mL (≈ 3.44 mM) in test [12]. Further, in test [13] (Pichia kudriavzevii), the MIC came out at 1000 µg/mL (≈ 3.44 mM). Besides, the MBC/MIC in [7] is listed as greater than 1. Further, the MBC in test [7] (ATCC12228) was greater than 1000 µg/mL. For the same molecule, the MFC/MIC in [9], in test [11], in test [12] and in test [13] was greater than 1 throughout. Besides, the MFC in [9] (ATCC2091, read-out: MFC) was greater than 1000 µg/mL; in test [11] it was greater than 1000 µg/mL; in [12], greater than 1000 µg/mL; in test [13] (Pichia kudriavzevii, ATCC14243, read-out: MFC), greater than 1000 µg/mL.

(Values after article PMC10743905, “Design, Synthesis, and In Vitro and In Vivo Bioactivity Studies of Hydrazide–Hydrazones of 2,4-Dihydroxybenzoic Acid” (International Journal of Molecular Sciences, 2023).)
